From US12618095B2, “Medium for Bacillus cereus group detection” (SHIMADZU DIAGNOSTICS CORPORATION, priority 2020, dated 2026)

Test system: B. cereus
Assay: Test Example 9: concentration of amphotericin B

With `C[C@@H]1[C@H](O)[C@@H](C)/C=C/C=C/C=C/C=C/C=C/C=C/C=C/[C@H](O[C@@H]2O[C@H](C)[C@@H](O)[C@H](N)[C@@H]2O)C[C@@H]2O[C@](O)(C[C@@H](O)C[C@@H](O)[C@H](O)CC[C@@H](O)C[C@@H](O)CC(=O)O[C@H]1C)C[C@H](O)[C@H]2C(=O)O` [Amphotericin B] the Number of colonies (ATCC11778, Amphotericin B 0.1 mg, 24 hours, 10^2 cfu/mL) was 37, the Number of colonies (ATCC11778, Amphotericin B 0.1 mg, 24 hours, 10^3 cfu/mL) was “+” and the Number of colonies (ATCC11778, Amphotericin B 0.1 mg, 24 hours, 10^4 cfu/mL) was “+”. The Number of colonies (ATCC11778, Amphotericin B 0.1 mg, 24 hours, 10^5 cfu/mL) was “+”, the Number of colonies (ATCC11778, Amphotericin B 0.1 mg, 44 hours, 10^2 cfu/mL) was 37 and the Number of colonies (ATCC11778, Amphotericin B 0.1 mg, 44 hours, 10^3 cfu/mL) was “+”. The Number of colonies (ATCC11778, Amphotericin B 0.1 mg, 44 hours, 10^4 cfu/mL) was “+”, the Number of colonies (ATCC11778, Amphotericin B 0.1 mg, 44 hours, 10^5 cfu/mL) was “+” and the Number of colonies (ATCC11778, Amphotericin B 1.0 mg, 24 hours, 10^2 cfu/mL) was 51. For the same molecule, the Number of colonies (ATCC11778, Amphotericin B 1.0 mg, 24 hours, 10^3 cfu/mL) was “+”, the Number of colonies (ATCC11778, Amphotericin B 1.0 mg, 24 hours, 10^4 cfu/mL) was “+” and the Number of colonies (ATCC11778, Amphotericin B 1.0 mg, 24 hours, 10^5 cfu/mL) was “+”. For the same molecule, the Number of colonies (ATCC11778, Amphotericin B 1.0 mg, 44 hours, 10^2 cfu/mL) was 51, the Number of colonies (ATCC11778, Amphotericin B 1.0 mg, 44 hours, 10^3 cfu/mL) was “+” and the Number of colonies (ATCC11778, Amphotericin B 1.0 mg, 44 hours, 10^4 cfu/mL) was “+”. The Number of colonies (ATCC11778, Amphotericin B 1.0 mg, 44 hours, 10^5 cfu/mL) was “+”, the Number of colonies (ATCC11778, Amphotericin B 10 mg, 24 hours, 10^2 cfu/mL) was 49 and the Number of colonies (ATCC11778, Amphotericin B 10 mg, 24 hours, 10^3 cfu/mL) was “+”. The Number of colonies (ATCC11778, Amphotericin B 10 mg, 24 hours, 10^4 cfu/mL) was “+”, the Number of colonies (ATCC11778, Amphotericin B 10 mg, 24 hours, 10^5 cfu/mL) was “+” and the Number of colonies (ATCC11778, Amphotericin B 10 mg, 44 hours, 10^2 cfu/mL) was 49. The Number of colonies (ATCC11778, Amphotericin B 10 mg, 44 hours, 10^3 cfu/mL) was “+”, the Number of colonies (ATCC11778, Amphotericin B 10 mg, 44 hours, 10^4 cfu/mL) was “+” and the Number of colonies (ATCC11778, Amphotericin B 10 mg, 44 hours, 10^5 cfu/mL) was “+”. The Number of colonies (ATCC19637, Amphotericin B 0.1 mg, 24 hours, 10^2 cfu/mL) was 36, the Number of colonies (ATCC19637, Amphotericin B 0.1 mg, 24 hours, 10^3 cfu/mL) was “+” and the Number of colonies (ATCC19637, Amphotericin B 0.1 mg, 24 hours, 10^4 cfu/mL) was “+”. The Number of colonies (ATCC19637, Amphotericin B 0.1 mg, 24 hours, 10^5 cfu/mL) was “+”, the Number of colonies (ATCC19637, Amphotericin B 0.1 mg, 44 hours, 10^2 cfu/mL) was 36 and the Number of colonies (ATCC19637, Amphotericin B 0.1 mg, 44 hours, 10^3 cfu/mL) was “+”. The Number of colonies (ATCC19637, Amphotericin B 0.1 mg, 44 hours, 10^4 cfu/mL) was “+”, the Number of colonies (ATCC19637, Amphotericin B 0.1 mg, 44 hours, 10^5 cfu/mL) was “+” and the Number of colonies (ATCC19637, Amphotericin B 1.0 mg, 24 hours, 10^2 cfu/mL) was 35. For the same molecule, the Number of colonies (ATCC19637, Amphotericin B 1.0 mg, 24 hours, 10^3 cfu/mL) was “+”, the Number of colonies (ATCC19637, Amphotericin B 1.0 mg, 24 hours, 10^4 cfu/mL) was “+” and the Number of colonies (ATCC19637, Amphotericin B 1.0 mg, 24 hours, 10^5 cfu/mL) was “+”. For the same molecule, the Number of colonies (ATCC19637, Amphotericin B 1.0 mg, 44 hours, 10^2 cfu/mL) was 35, the Number of colonies (ATCC19637, Amphotericin B 1.0 mg, 44 hours, 10^3 cfu/mL) was “+” and the Number of colonies (ATCC19637, Amphotericin B 1.0 mg, 44 hours, 10^4 cfu/mL) was “+”. For the same molecule, the Number of colonies (ATCC19637, Amphotericin B 1.0 mg, 44 hours, 10^5 cfu/mL) was “+”, the Number of colonies (ATCC19637, Amphotericin B 10 mg, 24 hours, 10^2 cfu/mL) was 39 and the Number of colonies (ATCC19637, Amphotericin B 10 mg, 24 hours, 10^3 cfu/mL) was “+”. The Number of colonies (ATCC19637, Amphotericin B 10 mg, 24 hours, 10^4 cfu/mL) was “+”, the Number of colonies (ATCC19637, Amphotericin B 10 mg, 24 hours, 10^5 cfu/mL) was “+” and the Number of colonies (ATCC19637, Amphotericin B 10 mg, 44 hours, 10^2 cfu/mL) was 39. The Number of colonies (ATCC19637, Amphotericin B 10 mg, 44 hours, 10^3 cfu/mL) was “+”, the Number of colonies (ATCC19637, Amphotericin B 10 mg, 44 hours, 10^4 cfu/mL) was “+” and the Number of colonies (ATCC19637, Amphotericin B 10 mg, 44 hours, 10^5 cfu/mL) was “+”.
